From ChEMBL document CHEMBL1201862, “PubChem BioAssay data set” (2004) come the findings set out here.

Among the test systems are HL-60; TK-10; IGROV-1; OVCAR-5; OVCAR-8; HCT-116; BT-549; KM12; SNB-19; RXF 393; SK-OV-3; CCRF-CEM; SN12C; A549; CAKI-1; MDA-MB-435; SK-MEL-5; 786-0; NCI-H460.
Common to all, as to test: NCI tumour cell line growth inhibition, 48 h

SMILES strings stand for the structures.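 Method: 48-hour compound exposure of cells in 96-well plates, five concentrations, linear interpolation of endpoints. At the GI50, growth is halved.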 Calls of active or inactive are those of the source. No stated cut-off is given here; in the data, active = GI50 up to about 1.1 µM and inactive = higher. Some results are limits rather than exact numbers.

In the case of `Cc1cccc2c(N)c3cccc(C(=O)NCC[N+](C)(C)Cc4sccc4[N+](=O)[O-])c3nc12`, the GI50 in the experiment on HL-60 is > 100 µM (inactive); with TK-10, 25.9 µM (inactive); with IGROV-1 it was 2.71 µM (inactive); with OVCAR-5 it was 5.37 µM (inactive); in the experiment on OVCAR-8, 9.84 µM (inactive); in the experiment with HCT-116, 12.1 µM (inactive). For the same compound, the GI50 in the experiment with BT-549 is 22 µM (inactive); with KM12 it was 9.68 µM (inactive); with SNB-19 it was 6.59 µM (inactive); in the experiment on RXF 393, 12.9 µM (inactive); in the experiment on SK-OV-3, 10.8 µM (inactive); in the experiment on CCRF-CEM, > 100 µM (inactive). The GI50 is 0.332 µM (active) with SN12C; 0.491 µM (active) with A549; 2.55 µM (inactive) in the experiment on CAKI-1; 40.6 µM (inactive) with MDA-MB-435; 5.21 µM (inactive) in the experiment on SK-MEL-5; 5.56 µM (inactive) with 786-0.

On to `Cc1ccc(S(=O)(=O)N2CCCN(S(=O)(=O)c3ccc(C)cc3)CCN(S(=O)(=O)c3ccc(C)cc3)CCCSCC2)cc1`, for which the GI50 in the experiment with NCI-H460, in the experiment with HL-60, in the experiment on IGROV-1, in the experiment on OVCAR-5, in the experiment on OVCAR-8 and with HCT-116 was > 100 µM (inactive) throughout. For the same compound, the GI50 with BT-549, in the experiment with SNB-19, in the experiment on RXF 393, in the experiment with SK-OV-3, in the experiment with CCRF-CEM and in the experiment with SN12C was > 100 µM (inactive) in each case. The GI50 in the experiment with A549 is > 100 µM (inactive); in the experiment on MDA-MB-435, > 100 µM (inactive); in the experiment on SK-MEL-5, > 100 µM (inactive); in the experiment on 786-0 it was 45.2 µM (inactive).

With `Cc1c(O)nc(-n2[nH]c3c(c2=O)CCCC3)[nH]c1=O`, the GI50 in the experiment on NCI-H460, in the experiment with HL-60, in the experiment with TK-10, in the experiment on IGROV-1, in the experiment with OVCAR-5 and in the experiment with OVCAR-8 was > 100 µM (inactive) in each case. Further, the GI50 in the experiment with HCT-116, in the experiment with BT-549, in the experiment with KM12, in the experiment with SNB-19, in the experiment on RXF 393 and in the experiment on SK-OV-3 was > 100 µM (inactive) each time. The GI50 in the experiment with CCRF-CEM, in the experiment with SN12C, in the experiment with CAKI-1, with MDA-MB-435, in the experiment on SK-MEL-5 and with 786-0 was > 100 µM (inactive) throughout.

For `COc1ccc(C)cc1NC(=S)N/N=C/c1ccco1`, the GI50 in the experiment on NCI-H460 was 34.1 µM (inactive); in the experiment on HL-60 it was 22 µM (inactive); with IGROV-1 it was 35.8 µM (inactive); in the experiment on OVCAR-5, > 100 µM (inactive); in the experiment with OVCAR-8, 37.3 µM (inactive); with HCT-116, 36.2 µM (inactive). The GI50 was 53.8 µM (inactive) in the experiment on BT-549; 18.9 µM (inactive) in the experiment with KM12; 99.3 µM (inactive) in the experiment with SNB-19; 52.1 µM (inactive) in the experiment on RXF 393; > 100 µM (inactive) in the experiment with SK-OV-3; 29 µM (inactive) in the experiment with CCRF-CEM. Moreover, the GI50 with SN12C is 45.3 µM (inactive); in the experiment on A549, 48.4 µM (inactive); in the experiment on CAKI-1 it was 55.2 µM (inactive); with MDA-MB-435, 16 µM (inactive); with SK-MEL-5, 14.7 µM (inactive); in the experiment with 786-0, 38 µM (inactive).

For the compound `Nc1nc2cc(CNc3ccc(C(=O)O)cc3)ccc2nc1-c1ccccc1`, the GI50 with NCI-H460, in the experiment on HL-60, in the experiment on TK-10, with IGROV-1, in the experiment with OVCAR-5 and in the experiment with OVCAR-8 was > 100 µM (inactive) throughout. The GI50 is 69.8 µM (inactive) in the experiment on HCT-116; > 100 µM (inactive) in the experiment with BT-549; > 100 µM (inactive) in the experiment on SNB-19; > 100 µM (inactive) in the experiment with RXF 393; > 100 µM (inactive) in the experiment with SK-OV-3; > 100 µM (inactive) in the experiment with CCRF-CEM. For the same compound, the GI50 with SN12C, in the experiment on A549, in the experiment on MDA-MB-435, in the experiment on SK-MEL-5 and with 786-0 was > 100 µM (inactive) each time.

`Cc1ccc(C2=Nc3c(N)nc(N)nc3NC(c3ccccc3)C2)cc1` (stereo not drawn): the GI50 in the experiment on NCI-H460 is 12.4 µM (inactive); in the experiment with HL-60 it was 3.08 µM (inactive); in the experiment with TK-10 it was 14.4 µM (inactive); in the experiment with IGROV-1 it was 7.16 µM (inactive); in the experiment on OVCAR-5 it was 16.4 µM (inactive); in the experiment on OVCAR-8 it was 14 µM (inactive). Besides, the GI50 is 5.53 µM (inactive) with HCT-116; 9.46 µM (inactive) in the experiment with BT-549; 13.4 µM (inactive) in the experiment on SNB-19; 9.4 µM (inactive) in the experiment on RXF 393; 13.9 µM (inactive) in the experiment with SK-OV-3; 7.41 µM (inactive) in the experiment with CCRF-CEM. Besides, the GI50 in the experiment with SN12C was 11.4 µM (inactive); in the experiment on A549, 10.9 µM (inactive); in the experiment with CAKI-1, 10.5 µM (inactive); in the experiment on MDA-MB-435, 2.24 µM (inactive); in the experiment with SK-MEL-5 it was 10 µM (inactive); in the experiment with 786-0, 12 µM (inactive).

For `Cn1c(=O)c2c(nc3n(Cc4ccccc4)c(=O)c(Br)cn23)n(C)c1=O`, the GI50 in the experiment on NCI-H460, with HL-60, in the experiment with TK-10, in the experiment on IGROV-1, in the experiment with OVCAR-5 and in the experiment with OVCAR-8 was > 100 µM (inactive) throughout. The GI50 with HCT-116, with BT-549, with KM12, in the experiment with SNB-19, in the experiment on RXF 393 and in the experiment with CCRF-CEM was > 100 µM (inactive) in each case. For the same compound, the GI50 in the experiment with SN12C, in the experiment on A549, in the experiment with CAKI-1, in the experiment with MDA-MB-435, in the experiment on SK-MEL-5 and in the experiment with 786-0 was > 100 µM (inactive) in each case.

On to `CC1CC/C(=C\c2ccc(F)cc2)C2=C1C(c1ccc(F)cc1)N1C(=O)CSC1=N2` (stereo not drawn), for which the GI50 was 30.8 µM (inactive) in the experiment on NCI-H460; 4.35 µM (inactive) with HL-60; > 100 µM (inactive) with TK-10; 9.23 µM (inactive) with IGROV-1; 69.7 µM (inactive) with OVCAR-8; 50 µM (inactive) in the experiment on HCT-116. Besides, the GI50 was > 100 µM (inactive) in the experiment with BT-549; 35.7 µM (inactive) in the experiment with KM12; > 100 µM (inactive) with SNB-19; 21.7 µM (inactive) in the experiment with RXF 393; > 100 µM (inactive) with SK-OV-3; 41.2 µM (inactive) in the experiment with CCRF-CEM. Further, the GI50 was > 100 µM (inactive) with SN12C; > 100 µM (inactive) in the experiment with CAKI-1; 91 µM (inactive) in the experiment on MDA-MB-435; 40 µM (inactive) in the experiment on SK-MEL-5; > 100 µM (inactive) in the experiment with 786-0.

For `N#Cc1c(O)c(/N=N/c2ccccc2F)c(=O)n2c1[nH]c1ccccc12`, the GI50 in the experiment with NCI-H460 was 32.6 µM (inactive); with HL-60 it was 33 µM (inactive); with TK-10 it was 55.6 µM (inactive); with IGROV-1 it was 74.8 µM (inactive); with OVCAR-5, 34 µM (inactive); in the experiment with OVCAR-8 it was 39.3 µM (inactive). Further, the GI50 in the experiment on HCT-116 was 26.6 µM (inactive); in the experiment on BT-549 it was 60 µM (inactive); in the experiment on SNB-19, 48.1 µM (inactive); in the experiment on RXF 393, 37.8 µM (inactive); in the experiment with SK-OV-3, 50.5 µM (inactive); with CCRF-CEM, 36.8 µM (inactive). Also, the GI50 was 31.6 µM (inactive) in the experiment with SN12C; 42.5 µM (inactive) in the experiment on A549; 21.6 µM (inactive) with MDA-MB-435; 42 µM (inactive) with SK-MEL-5; 43.7 µM (inactive) with 786-0.

Turning to `CO[C@@H]1[C@@H](OC2OC(C)C(OC3CC(C)(O)C(OC(=O)CC(C)C)C(C)O3)C(N(C)C)C2O)[C@@H](CC=O)C[C@@H](C)C(=O)/C=C/C2O[C@H]2C[C@@H](C)OC(=O)C[C@H]1OC(C)=O` (stereo partly drawn), the GI50 in the experiment on NCI-H460 was 16.8 µM (inactive); with HL-60, 6.47 µM (inactive); in the experiment on TK-10 it was 24.9 µM (inactive); in the experiment on IGROV-1, 10.8 µM (inactive); with OVCAR-5 it was 17.1 µM (inactive); in the experiment on OVCAR-8, 22.6 µM (inactive). Moreover, the GI50 is 14.9 µM (inactive) in the experiment on HCT-116; 17.6 µM (inactive) in the experiment with BT-549; 17.3 µM (inactive) with KM12; 22 µM (inactive) with SNB-19; 20.7 µM (inactive) in the experiment with RXF 393; 39.2 µM (inactive) in the experiment with SK-OV-3. Further, the GI50 in the experiment on CCRF-CEM was 9.77 µM (inactive); with SN12C, 15.4 µM (inactive); in the experiment on A549 it was 32 µM (inactive); in the experiment with MDA-MB-435 it was 17.7 µM (inactive); with SK-MEL-5, 15.3 µM (inactive); in the experiment with 786-0, 20 µM (inactive).

Regarding `Cc1nc(C)c(N2CCN(C#N)CC2)c(O)n1`, the GI50 is > 100 µM (inactive) in the experiment on NCI-H460; > 100 µM (inactive) in the experiment with HL-60; > 100 µM (inactive) with TK-10; > 100 µM (inactive) with IGROV-1; 93.3 µM (inactive) with OVCAR-8; > 100 µM (inactive) in the experiment on HCT-116. Further, the GI50 in the experiment on BT-549, in the experiment on KM12, with SNB-19, in the experiment on RXF 393, with SK-OV-3 and in the experiment with CCRF-CEM was > 100 µM (inactive) throughout. For the same compound, the GI50 in the experiment with SN12C, in the experiment with A549, with CAKI-1, with MDA-MB-435, with SK-MEL-5 and with 786-0 was > 100 µM (inactive) in each case.
